From patent US12060588B2, “Methods of editing DNA methylation” (Whitehead Institute for Biomedical Research, priority 2016, dated 2024)

Test system: BDNF promoter IV / BDNF expression
Experiment: BDNF expression in mouse cortical neurons (RT-qPCR)
Assay type: cell-based
Experimental: FIGS. 3A-3E depict targeted demethylation of BDNF promoter IV by dCas9-Tet1 to activate BDNF in neurons. FIG. 3A provides a schematic representation of targeting BDNF promoter IV by dCas9-Tet1 (dC-T) with specific gRNAs to erase methylation and activate BDNF expression. […] Bars are mean t SD of three biological replicates. FIG. 3C provides representative confocal images for BDNF induction in FIG. 3B. Top panel: BDNF expression was induced by 50 mM KCl treatment for 6 hrs. […] Stained in red for MAP2 (top two panels) or Cherry (bottom two panels), green for BDNF, blue for DAPI and grey for dCas9. Scale bar: 50 um. FIG. 3D depicts bisulfite sequencing of neurons in FIG. 3C. […] Shown is the mean percentage±SD of two biological replicates.
FIGS. 11A-11L depict targeted demethylation of BDNF promoter IV by dCas9-Tet1 in neurons. […] PAM for each gRNA is highlighted by a red box. […] Note that cultured neurons were treated with AraC on DIV2 to halt cell division in glial cells and neural progenitors. […] FIG. 11C provides EDU labeling analysis for the mouse primary neurons over the course of KCl treatment for 24 hrs. Note that extremely few EDU positive cells were observed. Stained in red for EDU, green for MAP2 and DAPI for nuclei. Scale bar: 500 um. FIG. 11D Upper panel: provides quantification of neuronal density over the course of KCl treatment. The post-mitotic neuron density remains steadily around 4.5×10^4/cm2 over time. Bars represent mean±SD of three experimental replicates. Lower panel: provides quantification of the EDU positive cells over the course of KCl treatment. Less than 2% of the cells are EDU-positive over 24 hrs. Bars represent mean±SD of three experimental replicates. FIG. 11E provides confocal micrographs of BDNF induction by ectopic expression of dCas9-Tet1 and a set of 4 gRNAs targeting BDNF promoter IV. Stained in green for BDNF, magenta for MAP2, red for Cherry and blue for DAPI. Note that the lentiviral infection efficiency is close to 100% in these neurons. Scale bar: 50 um. […] Bars represent mean±SD of three experimental replicates. […] FIG. 11J depicts DIV3 mouse cortical neurons were treated with ABT (50 uM) for 6 hours and then treated with KCl (50 mM) for 6-hour before harvest for RT-qPCR analysis. Bars represent mean±SD of three experimental replicates. FIG. 11K depicts DIV3 mouse cortical neurons were treated with 2-Hydroxyglutarate (10 mM) for 2 hours and then treated with KCl (50 mM) for 6-hour before harvest for RT-qPCR analysis. Bars represent mean±SD of three experimental replicates. FIG. 11L depicts DIV3 mouse cortical neurons derived from wild-type or Tet1 knockout E17.5 embryos were subject to time course KCl treatment experiments (6, 9 and 12 h). Bars represent mean±SD of three experimental replicates.
DNA replication-independent active demethylation has been proposed to operate in post-mitotic neurons (Guo et al., 2011; Martinowich et al., 2003). To test whether active demethylation can be induced in post-mitotic neurons, we applied the dCas9-Tet1 system to study the regulation of the BDNF gene. BDNF expression can be induced by neuronal activity accompanied by demethylation of its promoter IV (Chen et al., 2003; Martinowich et al., 2003). We designed 4 gRNAs targeting 11 CpGs in BDNF promoter IV (FIG. 11A) to determine whether dCas9-Tet1 can activate BDNF by inducing demethylation of this promoter (FIG. 3A). Mouse cortical neurons were isolated from E17.5 embryos and cultured for two days in vitro (DIV2) following a well-established experimental procedure for producing primary neuronal culture (Ebert et al., 2013). […] Neurons at day 3 in culture (DIV3) were infected with lentiviral vectors expressing dCas9-Tet1 with or without the 4 gRNAs at almost 100% transduction efficiency (FIG. 11E). At 48-hour post infection some of the cultures were treated with KCl to induce neuronal activity. […] We performed bisulfite sequencing to examine the methylation state of BDNF promoter IV. […]

[1] = with 4 gRNAs targeting BDNF promoter IV, DIV3 neurons, lentiviral infection 2 days

Row | Substance | induction of BDNF expression [1] | induction of BDNF expression (in the absence of gRNAs, DIV3 neurons, lentiviral infection 2 days) | induction of BDNF expression (with each individual gRNA targeting BDNF promoter IV)
1 | dC-dT: dCas9 fused to an inactive mutant form of Tet1 (H1672Y, D1674A), SEQ ID NO: 160 | no induction |  | 
2 | dCas9-Tet1: catalytically inactive Cas9 (dCas9) fused through NLS to the Tet1 catalytic domain, SEQ ID NO: 159; lentivirally expressed with gRNAs | about 6 fold | less than 2 fold | 2-3 fold
